Data published in patent US20240425478A1, “CYCLOPENTYLPYRAZOLE CDK2 INHIBITORS” (Genentech, Inc., priority 2021, published 2024).
Read-outs that look alike come from different tables or passages of the source.

Tests used:
[1] = test system: HCT116 cells; assay: p-H3 HCT-116 mitotic release cell proliferation assay (cellular CDK1); format: cell-based; conditions: for IC50: Homo sapiens, HCT-116, cellular assay, read-out: CDK1 p-H3 IC50
In short: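 Phospho-Histone H3 (Ser10) in lysates was quantified by a two-antibody HTRF FRET read (≥2 h, room temperature). Before this, HCT116 cells held in mitosis by 16 h of 500 nM nocodazole were treated with compound for 4 h at 37 °C, 0.1% DMSO.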

[2] = target: T1, Cyclin Dependent Kinase 2/Cyclin E1 (CDK2-cycE1) (Homo sapiens, UniProt P24941); assay: CDK2-cycE1 TR-FRET (LANCE) enzyme assay; format: biochemical; conditions: for FS CDK1/CDK2 / FS CDK4/CDK2: fold selectivity;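 on improvement in potency against CDK2 (Ki) over Comparator C: fold lower CDK2 Ki than comparator c (Ki 0.032 µM)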
T1 construct: purchased ProQinase 0050-0055-1
In short: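 Kinase reaction buffer: 50 mM HEPES pH 7.5, 10 mM MgCl2, 2 mM TCEP, 0.05% BGG, 0.01% Brij 35, with 30 min compound–enzyme pre-incubation.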

[3] = target: T2, Cyclin Dependent Kinase 4/Cyclin D3 (CDK4-cycD3) (Homo sapiens, UniProt P11802); assay: CDK4-cycD3 TR-FRET (LANCE) enzyme assay; format: biochemical; conditions: for Ki: enzymatic assay; for FS CDK4/CDK2: fold selectivity, enzymatic Ki ratio
T2 construct: purchased Carna Biosciences 04-105
T2 sequence (P11802 whole entry): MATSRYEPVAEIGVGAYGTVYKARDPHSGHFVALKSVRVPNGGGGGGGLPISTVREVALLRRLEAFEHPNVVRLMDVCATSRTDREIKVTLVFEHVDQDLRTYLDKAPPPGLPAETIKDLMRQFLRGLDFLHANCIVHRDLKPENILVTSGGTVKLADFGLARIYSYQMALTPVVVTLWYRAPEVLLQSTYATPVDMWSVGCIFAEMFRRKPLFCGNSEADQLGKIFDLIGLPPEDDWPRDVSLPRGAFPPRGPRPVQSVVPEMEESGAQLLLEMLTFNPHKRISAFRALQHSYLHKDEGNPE
T2 sequence (P30281 whole entry partner): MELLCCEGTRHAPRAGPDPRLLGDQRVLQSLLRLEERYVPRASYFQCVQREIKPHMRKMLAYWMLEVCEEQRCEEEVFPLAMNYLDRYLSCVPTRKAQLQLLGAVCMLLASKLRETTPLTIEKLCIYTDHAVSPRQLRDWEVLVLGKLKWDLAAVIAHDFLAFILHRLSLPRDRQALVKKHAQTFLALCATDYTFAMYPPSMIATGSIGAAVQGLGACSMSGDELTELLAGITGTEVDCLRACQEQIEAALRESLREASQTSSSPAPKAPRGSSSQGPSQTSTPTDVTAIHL
In short: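 Compound dose responses pre-incubated 30 min with enzyme mix in 50 mM HEPES pH 7.5, 10 mM MgCl2, 2 mM TCEP, 0.05% BGG, 0.01% Brij 35. Reaction quenched with EDTA (15 mM final); Eu-anti-phospho-4E-BP1 TR-FRET detection, acceptor/donor ratio. Ki derived by Morrison equation.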

[4] = test system: SKOV-3 (ATCC HTB-77); assay: SKOV-3 EdU incorporation cell proliferation assay (CDK4/6-dependent); format: cell-based; conditions: for IC50: Homo sapiens, cellular assay, read-out: CDK4/6 SKOV-3 IC50; for FS SKOV-3/OVISE: fold selectivity
In short: (§1)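 EdU incorporation (0.5 μM final, last 8 h) follows a 16 h compound exposure at 37 °C, 5% CO2 in RPMI plus 10% FBS, 0.5% DMSO. After fixation, imaging scores EdU-positive cells; a 4-parameter logistic fit of that fraction gives IC50.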

[5] = target: T3, Cyclin Dependent Kinase 1/Cyclin A2 (CDK1-cycA2) (Homo sapiens, UniProt P06493); assay: CDK1-cycA2 TR-FRET (Lance) enzyme assay; format: biochemical; conditions: for Ki: enzymatic assay; for FS CDK1/CDK2: fold selectivity, enzymatic Ki ratio
T3 construct: purchased ProQinase 0134-0054-1
T3 sequence (P06493 whole entry): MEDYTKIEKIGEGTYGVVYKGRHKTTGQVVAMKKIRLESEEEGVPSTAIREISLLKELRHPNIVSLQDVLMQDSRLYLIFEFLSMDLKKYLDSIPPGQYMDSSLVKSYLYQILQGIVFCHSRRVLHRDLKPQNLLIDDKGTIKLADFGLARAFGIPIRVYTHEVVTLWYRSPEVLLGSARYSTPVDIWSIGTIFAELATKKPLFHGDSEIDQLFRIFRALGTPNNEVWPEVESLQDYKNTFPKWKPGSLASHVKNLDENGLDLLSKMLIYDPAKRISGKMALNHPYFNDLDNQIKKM
T3 sequence (P20248 whole entry partner): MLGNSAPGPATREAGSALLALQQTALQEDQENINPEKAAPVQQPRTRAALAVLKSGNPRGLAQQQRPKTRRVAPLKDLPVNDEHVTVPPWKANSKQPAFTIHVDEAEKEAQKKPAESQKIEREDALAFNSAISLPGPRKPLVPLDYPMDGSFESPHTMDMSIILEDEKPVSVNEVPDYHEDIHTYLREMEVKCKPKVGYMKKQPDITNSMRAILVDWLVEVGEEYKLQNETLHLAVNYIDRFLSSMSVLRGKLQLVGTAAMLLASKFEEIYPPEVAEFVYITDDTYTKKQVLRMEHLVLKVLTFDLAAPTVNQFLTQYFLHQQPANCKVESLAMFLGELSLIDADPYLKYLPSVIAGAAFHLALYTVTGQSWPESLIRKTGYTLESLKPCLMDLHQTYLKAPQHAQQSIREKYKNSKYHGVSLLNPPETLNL
In short: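 TR-FRET (Lance) detection of phospho-4E-BP1 with a europium-labelled antibody after EDTA quench (15 mM final); signal taken as acceptor/donor ratio. Enzyme and compound were pre-incubated 30 min in HEPES pH 7.5 buffer with MgCl2, TCEP, BGG and Brij 35. Ki derived by Morrison fit.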

[6] = test system: OVISE (JCRB1043, CCNE1-amplified); assay: OVISE EdU incorporation cell proliferation assay (CDK2-dependent); format: cell-based; conditions: for IC50: cellular assay, read-out: CDK2 OVISE IC50; for FS SKOV-3/OVISE / FS p-H3/OVISE: fold selectivity; for FS p-H3/OVISE: cellular p-H3 IC50 over OVISE IC50; for CDK2 OVISE IC50 fold change in potency versus Comparator D: Table R; for CDK2 OVISE IC50 fold change in potency versus Comparator E: Table S
In short: as §1

[7] = Table O, enzymatic assay, read-out: CDK2 Ki
[8] = Table O, enzymatic CDK1 Ki over CDK2 Ki
[9] = Table O, enzymatic CDK4 Ki over CDK2 Ki
[10] = read-out: CDK2 activity / potency (enzymatic assay)
[11] = Table O, cellular SKOV-3 IC50 over OVISE IC50
[12] = Table R, enzymatic assay, read-out: CDK2 Ki
[13] = Table R, in brackets after CDK2 Ki
[14] = Table S, enzymatic assay, read-out: CDK2 Ki
[15] = Table S, in brackets after CDK2 Ki

SMILES | IC50 ([1]; Table O) [nM] | Ki [2, 7] [nM] | FS CDK1/CDK2 [2, 8] | FS CDK4/CDK2 [2, 9] | Ki ([3]; Table O) [nM] | IC50 ([4]; SK-OV-3, Table O) [nM] | Ki ([5]; Table O) [nM] | Ki [2, 10] [nM] | IC50 ([6]; Table O) [nM] | FS SKOV-3/OVISE [6, 11] | FS p-H3/OVISE ([6]; Table O) | Ki [2, 12] [nM] | CDK2 Ki fold change in potency versus Comparator D [2, 13] [fold] | Ki [2, 14] [nM] | CDK2 Ki fold change in potency versus Comparator E [2, 15] [fold] | FS CDK4/CDK2 increased over Comparator D, (+) sign ([3]; Table R) | FS CDK4/CDK2 ([3]; Table R) | FS CDK4/CDK2 ([3]; Table S) | FS SKOV-3/OVISE increased over Comparator D, (+) sign ([4]; Table R) | FS SKOV-3/OVISE ([4]; Table R, cellular IC50 ratio) | other results
CC(C)(C)NC(=O)O[C@@H]1CC[C@H](c2cc(NC(=O)c3ccnnc3)n[nH]2)C1 [Comparator B, reference compound] | – | – | – | – | – | – | – | 1 | – | – | – | – | – | – | – | – | – | – | – | – | pH3/OVISE fold selectivity (CDK1 over CDK2, cellular assay data) [1]: 0.31 fold; IC50 ([1]; Table P): 43 nM; FS p-H3/OVISE ([1]; fold selectivity, cellular IC50 ratio (CDK1 over CDK2), Table P): 0.31; Ki ([3]; Table P): 250 nM; FS CDK4/CDK2 ([3]; Table P): 250; IC50 ([4]; SK-OV-3, Table P): 6700 nM; FS SKOV-3/OVISE ([4]; cellular IC50 ratio (CDK4/6 over CDK2), Table P): 48; Ki ([5]; Table P): 32 nM; FS CDK1/CDK2 ([5]; Table P): 32; IC50 ([6]; Table P): 140 nM
Cc1ccc(Nc2cc([C@H]3CC[C@@H](OC(=O)NC(C)(C)C)C3)[nH]n2)cn1 [Example 4B, (1R,3S)-3-(3-((6-methylpyridin-3-yl)amino)-1H-pyrazol-5-yl)cyclopentyl tert-butylcarbamate] | 23 | 0.52 | 38 | 37 | 19 | 390 | 20 | ≤ 1 | 33 | 12 | 0.70 | 0.52 | 5.2 | 0.52 | 1 | (+) | 37 | 37 | (+) | 12 | FS SKOV-3/OVISE ([4]; Table S, cellular IC50 ratio): 12; FS CDK1/CDK2 increased over Comparator D, (+) sign ([5]; Table R): (+); FS CDK1/CDK2 ([5]; Table R): 38; FS CDK1/CDK2 ([5]; Table S): 38; CDK2 OVISE IC50 fold change in potency versus Comparator D ([6]; in brackets after OVISE IC50): 115 fold; CDK2 OVISE IC50 fold change in potency versus Comparator E ([6]; in brackets after OVISE IC50): 5.2 fold
CC(C)(C)NC(=O)O[C@@H]1CC[C@H](c2cc(Nc3ncccn3)n[nH]2)C1 [Example 4J, (1R,3S)-3-(3-(pyrimidin-2-ylamino)-1H-pyrazol-5-yl)cyclopentyl tert-butylcarbamate] | 360 | 2.5 | 68 | 4.4 | 11 | 1200 | 170 | – | 320 | 3.8 | 1.1 | 2.5 | 1.1 | 2.5 | 0.2 | (+) | 4.4 | 4.4 | (+) | 3.8 | IC50 ([4]; SK-OV-3, Table R): 1200 nM; IC50 ([4]; SK-OV-3, Table S): 1200 nM; FS SKOV-3/OVISE ([4]; Table S, cellular IC50 ratio): 3.8; FS CDK1/CDK2 increased over Comparator D, (+) sign ([5]; Table R): (+); FS CDK1/CDK2 ([5]; Table R): 68; FS CDK1/CDK2 increased over Comparator E, (+) sign ([5]; Table S): (+); FS CDK1/CDK2 ([5]; Table S): 68; CDK2 OVISE IC50 fold change in potency versus Comparator D ([6]; in brackets after OVISE IC50): 12 fold; CDK2 OVISE IC50 fold change in potency versus Comparator E ([6]; in brackets after OVISE IC50): 0.5 fold

Further lines, with some results ahead:

IC50 ([1]; Table O) [nM] | Ki [2, 7] [nM] | FS CDK1/CDK2 [2, 8] | FS CDK4/CDK2 [2, 9] | Ki ([3]; Table O) [nM] | IC50 ([4]; SK-OV-3, Table O) [nM] | Ki ([5]; Table O) [nM] | SMILES | Ki [2, 10] [nM] | IC50 ([6]; Table O) [nM] | FS SKOV-3/OVISE [6, 11] | FS p-H3/OVISE ([6]; Table O) | Ki [2, 12] [nM] | CDK2 Ki fold change in potency versus Comparator D [2, 13] [fold] | Ki [2, 14] [nM] | CDK2 Ki fold change in potency versus Comparator E [2, 15] [fold] | FS CDK4/CDK2 increased over Comparator D, (+) sign ([3]; Table R) | FS CDK4/CDK2 ([3]; Table R) | FS CDK4/CDK2 ([3]; Table S) | FS SKOV-3/OVISE increased over Comparator D, (+) sign ([4]; Table R) | FS SKOV-3/OVISE ([4]; Table R, cellular IC50 ratio) | other results
23 | < 0.1 | >33 | >320 | 20 | 1300 | 21 | Cn1nc(Nc2cc([C@H]3CC[C@@H](OC(=O)NC45CC(C4)C5)C3)[nH]n2)ccc1=O [Example 6, (1R,3S)-3-(5-((1-methyl-6-oxo-1,6-dihydropyridazin-3-yl)amino)-1H-pyrazol-3-yl)cyclopentyl bicyclo[1.1.1]pentan-1-ylcarbamate] | ≤ 1 | 16 | 81 | 1.4 | – | – | – | – | – | – | – | – | – | –
190 | 0.44 | 36 | 550 | 240 | 11000 | 16 | CC(C)NC(=O)O[C@@H]1CC[C@H](c2cc(Nc3ccc(=O)n(C)n3)n[nH]2)C1 [Example 2, (1R,3S)-3-(3-((1-methyl-6-oxo-1,6-dihydropyridazin-3-yl)amino)-1H-pyrazol-5-yl)cyclopentyl isopropylcarbamate] | ≤ 1 | 93 | 120 | 1.9 | – | – | – | – | – | – | – | – | – | increased fold-selectivity CDK4/CDK2 over Comparator C ([2]; Table Q, (+) sign after FS CDK4/CDK2): (+) (The (+) sign in Table Q signifies desirable increased fold-selectivity of the exemplary compounds over Comparator C); Ki ([2]; Table Q, enzymatic assay, read-out: CDK2 Ki): 0.44 nM; FS CDK1/CDK2 ([2]; Table Q, enzymatic): 36; FS CDK4/CDK2 ([2]; Table Q, enzymatic): 550; improvement in potency against CDK2 (Ki) over Comparator C ([2]; Table Q, in brackets after CDK2 Ki, Comparator C 0.032 μM): 73 fold; IC50 ([4]; SK-OV-3, Table Q): 11000 nM; increased fold-selectivity SKOV-3/OVISE over Comparator C ([6]; Table Q, (+) sign after FS SKOV-3/OVISE): (+) (The (+) sign in Table Q signifies desirable increased fold-selectivity of the exemplary compounds over Comparator C); FS SKOV-3/OVISE ([6]; Table Q, cellular): 120; improvement in CDK2 OVISE cell potency over Comparator C ([6]; Table Q, in brackets after OVISE IC50, Comparator C 5.5 μM): 59 fold
140 | 0.66 | 79 | 212 | 140 | 3000 | 52 | Cc1nccnc1Nc1cc([C@H]2CC[C@@H](OC(=O)NC3(C)COC3)C2)[nH]n1 [Example 8B, (1R,3S)-3-(3-((3-methylpyrazin-2-yl)amino)-1H-pyrazol-5-yl)cyclopentyl (3-methyloxetan-3-yl)carbamate] | – | 87 | 34 | 1.6 | – | – | – | – | – | – | – | – | – | –
